Values joined by “and” are separate entries in the source; they are usually repeats but may differ in a detail not shown here. Equal values may be shown once. Inconclusive results and toxic doses are left out. Cut-off read from the data, not from the text of the source: active = T/C of 150% or more; inactive = T/C below 125%.
System: L1210 leukemia ip in BDF1 mice, survival T/C
Assay: NCI In Vivo Anticancer Drug Screen. Data for tumor model L1210 Leukemia (intraperitoneal) in B6D2F1 (BDF1) mice
Conditions: endpoint: mean survival time, higher = longer survival
In short: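 Tumor cells were implanted, animals were treated, and survival was followed. The result divides the treated measurement by the vehicle-control measurement.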

[1] = dose: 100.0 mg/kg/injection, schedule: Q01DX001 (ip), vehicle: saline
[2] = dose: 100.0 mg/kg/injection, schedule: Q04DX003 (ip), vehicle: saline
[3] = dose: 200.0 mg/kg/injection, schedule: Q01DX001 (ip), vehicle: saline
[4] = dose: 200.0 mg/kg/injection, schedule: Q04DX003 (ip), vehicle: saline
[5] = dose: 400.0 mg/kg/injection, schedule: Q01DX001 (ip), vehicle: saline
[6] = dose: 100.0 mg/kg/injection, schedule: Q04DX003 (ip), vehicle: saline with Tween-80
[7] = dose: 200.0 mg/kg/injection, schedule: Q04DX003 (ip), vehicle: saline with Tween-80
[8] = dose: 400.0 mg/kg/injection, schedule: Q04DX003 (ip), vehicle: saline with Tween-80
[9] = dose: 100.0 mg/kg/injection, schedule: Q01DX009 (ip), vehicle: saline with Tween-80
[10] = dose: 100.0 mg/kg/injection, schedule: Q04DX002 (ip), vehicle: saline with Tween-80
[11] = dose: 200.0 mg/kg/injection, schedule: Q01DX009 (ip), vehicle: saline with Tween-80
[12] = dose: 200.0 mg/kg/injection, schedule: Q04DX002 (ip), vehicle: saline with Tween-80

Measured: T/C

CCCCCCC(=O)N(CCCC)CCCC
inactive: dose: 100.0 mg/kg/injection, schedule: Q01DX001 (ip), vehicle: carboxymethylcellulose (CMC) 109 % of control | dose: 100.0 mg/kg/injection, schedule: Q01DX009 (ip), vehicle: carboxymethylcellulose (CMC) 100 % of control and 91 % of control | dose: 100.0 mg/kg/injection, schedule: Q04DX003 (ip), vehicle: carboxymethylcellulose (CMC) 103 % of control | dose: 200.0 mg/kg/injection, schedule: Q01DX001 (ip), vehicle: carboxymethylcellulose (CMC) 95 % of control | dose: 200.0 mg/kg/injection, schedule: Q01DX009 (ip), vehicle: carboxymethylcellulose (CMC) 96 % of control and 104 % of control | dose: 200.0 mg/kg/injection, schedule: Q04DX003 (ip), vehicle: carboxymethylcellulose (CMC) 94 % of control | dose: 400.0 mg/kg/injection, schedule: Q01DX001 (ip), vehicle: carboxymethylcellulose (CMC) 98 % of control | dose: 400.0 mg/kg/injection, schedule: Q04DX003 (ip), vehicle: carboxymethylcellulose (CMC) 92 % of control

O=C(Nc1ccc(F)c([N+](=O)[O-])c1)c1ccc2c(c1)C(=O)OC2=O
inactive: [1] 99 % of control | dose: 100.0 mg/kg/injection, schedule: Q01DX009 (ip), vehicle: saline 102 % of control and 92 % of control | dose: 100.0 mg/kg/injection, schedule: Q04DX002 (ip), vehicle: saline 104 % of control and 109 % of control | [2] 106 % of control | [3] 99 % of control | dose: 200.0 mg/kg/injection, schedule: Q01DX009 (ip), vehicle: saline 100 % of control and 92 % of control | dose: 200.0 mg/kg/injection, schedule: Q04DX002 (ip), vehicle: saline 96 % of control and 104 % of control | [4] 111 % of control | [5] 104 % of control | dose: 400.0 mg/kg/injection, schedule: Q01DX009 (ip), vehicle: saline 105 % of control and 92 % of control | dose: 400.0 mg/kg/injection, schedule: Q04DX002 (ip), vehicle: saline 96 % of control and 104 % of control | dose: 400.0 mg/kg/injection, schedule: Q04DX003 (ip), vehicle: saline 103 % of control

O=C1OCC/C1=C\c1ccc2c(c1)OCO2
inactive: [6] 105 % of control | [7] 101 % of control | [8] 90 % of control

CC(C)(C)C(=O)Nc1ccc(Cl)cc1C(=O)c1ccccc1
inactive: [9] 92 % of control and 110 % of control | [10] 93 % of control and 98 % of control | [11] 96 % of control and 100 % of control | [12] 93 % of control and 107 % of control | dose: 400.0 mg/kg/injection, schedule: Q01DX009 (ip), vehicle: saline with Tween-80 92 % of control and 95 % of control | dose: 400.0 mg/kg/injection, schedule: Q04DX002 (ip), vehicle: saline with Tween-80 107 % of control and 87 % of control

Fc1c(F)c(F)[c]([Hg][c]2c(F)c(F)c(F)c(F)c2F)c(F)c1F
inactive: dose: 3.13 mg/kg/injection, schedule: Q04DX002 (ip), vehicle: saline with Tween-80 107 % of control | dose: 6.25 mg/kg/injection, schedule: Q04DX002 (ip), vehicle: saline with Tween-80 93 % of control | dose: 12.5 mg/kg/injection, schedule: Q04DX002 (ip), vehicle: saline with Tween-80 87 % of control | dose: 25.0 mg/kg/injection, schedule: Q04DX002 (ip), vehicle: saline with Tween-80 97 % of control

Cc1ccc(Nc2c3ccccc3nc3ccccc23)cc1
inactive: dose: 18.0 mg/kg/injection, schedule: Q01DX009 (ip), vehicle: saline with Tween-80 100 % of control | dose: 37.5 mg/kg/injection, schedule: Q01DX009 (ip), vehicle: saline with Tween-80 110 % of control | dose: 40.0 mg/kg/injection, schedule: Q04DX003 (ip), vehicle: saline with Tween-80 96 % of control | dose: 65.0 mg/kg/injection, schedule: Q04DX003 (ip), vehicle: saline with Tween-80 106 % of control | dose: 75.0 mg/kg/injection, schedule: Q01DX001 (ip), vehicle: saline 100 % of control (2×) and 105 % of control | dose: 75.0 mg/kg/injection, schedule: Q01DX009 (ip), vehicle: saline with Tween-80 113 % of control | dose: 75.0 mg/kg/injection, schedule: Q04DX003 (ip), vehicle: saline with Tween-80 100 % of control | dose: 95.0 mg/kg/injection, schedule: Q04DX003 (ip), vehicle: saline with Tween-80 123 % of control | dose: 150.0 mg/kg/injection, schedule: Q01DX001 (ip), vehicle: saline 118 % of control | dose: 150.0 mg/kg/injection, schedule: Q04DX003 (ip), vehicle: saline with Tween-80 107 % of control and 88 % of control | dose: 225.0 mg/kg/injection, schedule: Q04DX003 (ip), vehicle: saline with Tween-80 118 % of control

O=Cc1cc(O)ccc1[N+](=O)[O-]
inactive: [9] 98 % of control | [6] 103 % of control | [11] 88 % of control | [7] 104 % of control | [8] 109 % of control

CC1=NCCc2cc3[nH]c4ccccc4c3cc21
inactive: dose: 25.0 mg/kg/injection, schedule: Q01DX009 (ip), vehicle: Klucel (hydroxypropylcellulose) (HPC) 102 % of control | dose: 25.0 mg/kg/injection, schedule: Q04DX003 (ip), vehicle: Klucel (hydroxypropylcellulose) (HPC) 99 % of control | dose: 50.0 mg/kg/injection, schedule: Q01DX009 (ip), vehicle: Klucel (hydroxypropylcellulose) (HPC) 96 % of control | dose: 50.0 mg/kg/injection, schedule: Q04DX003 (ip), vehicle: Klucel (hydroxypropylcellulose) (HPC) 104 % of control | dose: 100.0 mg/kg/injection, schedule: Q01DX001 (ip), vehicle: Klucel (hydroxypropylcellulose) (HPC) 94 % of control | dose: 100.0 mg/kg/injection, schedule: Q01DX009 (ip), vehicle: Klucel (hydroxypropylcellulose) (HPC) 94 % of control | dose: 100.0 mg/kg/injection, schedule: Q04DX003 (ip), vehicle: Klucel (hydroxypropylcellulose) (HPC) 100 % of control

CCCCCCCCCCCCCCCC(=O)N(CCCN)CCCCCCCCCN(CCCN)C(=O)CCCCCCCCCCCCCCC
inactive: dose: 25.0 mg/kg/injection, schedule: Q01DX009 (ip), vehicle: saline 96 % of control | dose: 50.0 mg/kg/injection, schedule: Q01DX009 (ip), vehicle: saline 97 % of control | [2] 91 % of control

CCC/C=C(C)/C=N\NC(=O)c1ccc[n+](C)c1
inactive: dose: 50.0 mg/kg/injection, schedule: Q01DX009 (ip), vehicle: saline with Tween-80 93 % of control | [9] 97 % of control

O=C(Nc1c(Oc2ccc(Cl)cc2Cl)ccc(Cl)c1S(=O)(=O)O)Nc1c(Oc2ccc(Cl)cc2Cl)ccc(Cl)c1S(=O)(=O)O
inactive: dose: 50.0 mg/kg/injection, schedule: Q04DX003 (ip), vehicle: saline 101 % of control | [2] 97 % of control | [4] 95 % of control

O=C/C=C/c1ccc([N+](=O)[O-])cc1
inactive: [1] 104 % of control | [9] 98 % of control | [3] 102 % of control | [5] 102 % of control

O=C1C2CCCC3CCCC(C(=O)N1NC1CCCCC1)C32 (stereo not given)
inactive: [10] 93 % of control | [12] 86 % of control
